Like-named read-outs stand apart in the source and are kept apart here.
Experiments:
[1] = cited from earlier work
[2] = AUC and Cmax target safe levels of CYP3A4 substrate drugs (Table 1)
Text: In various embodiments, the “Target safe levels” are non-limiting examples of the upper limit of fold change or percent of baseline where in some embodiments the benefits of treating the patient for the condition or disease for which the CYP3A4 substrate drug is indicated outweigh the risks associated with the effects of a drug-drug interaction. […] For purposes of the present methods, the blood plasma levels measured during co-administration of the CYP3A4 substrate drug with […] may be used to estimate the posaconazole DDI decay curve, e.g., using equation 1.

[3] = target: CYP3A4 (Homo sapiens, UniProt P08684); conditions: cited from earlier work
[4] = single 90 min infusion of irinotecan 125 mg/m^2, AUC0-24
[5] = single 90 min infusion of irinotecan 125 mg/m^2
[6] = single 90 min infusion of irinotecan 340 mg/m^2, AUC0-24
[7] = single 90 min infusion of irinotecan 340 mg/m^2
[8] = co-administered with a strong CYP3A4 inhibitor (posaconazole, itraconazole, ritonavir, or ketoconazole)
[9] = upper limit where benefits outweigh risks, approximation, can vary by about ±25%

CYP3A4, sequence (P08684 whole entry, the tested form may be a part): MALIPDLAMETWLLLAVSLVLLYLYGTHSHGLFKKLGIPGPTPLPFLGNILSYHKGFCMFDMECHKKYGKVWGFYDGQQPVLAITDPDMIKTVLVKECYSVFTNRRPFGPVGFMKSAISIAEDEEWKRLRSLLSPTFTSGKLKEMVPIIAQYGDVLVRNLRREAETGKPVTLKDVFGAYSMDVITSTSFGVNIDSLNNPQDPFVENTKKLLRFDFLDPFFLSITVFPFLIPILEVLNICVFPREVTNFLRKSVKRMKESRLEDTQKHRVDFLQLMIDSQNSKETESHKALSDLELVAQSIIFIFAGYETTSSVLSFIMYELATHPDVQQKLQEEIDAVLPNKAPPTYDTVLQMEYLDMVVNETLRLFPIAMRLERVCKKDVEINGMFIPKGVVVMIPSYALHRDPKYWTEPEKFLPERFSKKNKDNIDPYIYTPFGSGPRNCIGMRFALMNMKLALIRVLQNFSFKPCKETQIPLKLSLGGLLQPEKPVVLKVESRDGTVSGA

Row | SMILES | AUC co-administration levels, Fold change ([3]; in vivo) | AUC co-administration levels, Percent of baseline ([3]; in vivo) | Cmax co-administration levels, Fold change ([3]; in vivo) | Cmax co-administration levels, Percent of baseline ([3]; in vivo) | other results
1 | COc1cc(Nc2ncc(F)c(Nc3ccc4c(n3)NC(=O)C(C)(C)O4)n2)cc(OC)c1OC [R406] | – | – | – | – | Baseline AUC (% CV) ([1]; in vivo): 7080 (±2670) ng*h/mL; Baseline Cmax (% CV) ([1]; in vivo): 550 (±270) ng/ml
2 | CCc1c2c(nc3ccc(O)cc13)-c1cc3c(c(=O)n1C2)COC(=O)[C@]3(O)CC [SN-38] | – | – | – | – | Baseline AUC (% CV) [1, 4]: 229 ± 108 ng·h/mL; Baseline Cmax (% CV) [1, 5]: 26.3 ± 11.9 ng/mL; Baseline AUC (% CV) [1, 6]: 474 ± 245 ng·h/mL; Baseline Cmax (% CV) [1, 7]: 56.0 ± 28.2 ng/mL
3 | CCN1CCN(Cc2ccc(Nc3ncc(F)c(-c4cc(F)c5nc(C)n(C(C)C)c5c4)n3)nc2)CC1 [abemaciclib] | 16 fold | 1600% | – | – | AUC target safe level, Fold change ([2]; human): 1.3 fold; AUC target safe level, Percent of baseline ([2]; human): 130%
4 | CC#CC(=O)N1CCC[C@H]1c1nc(-c2ccc(C(=O)Nc3ccccn3)cc2)c2c(N)nccn12 [acalabrutinib] | 5.1 fold | 510% | 3.9 fold | 390% | AUC target safe level, Fold change ([2]; human): 2.0 fold; AUC target safe level, Percent of baseline ([2]; human): 200%; Cmax target safe level, Fold change ([2]; human): 2.0 fold; Cmax target safe level, Percent of baseline ([2]; human): 200%
5 | O=C(c1ccc(F)c(F)c1Nc1ccc(I)cc1F)N1CC(O)([C@@H]2CCCCN2)C1 [cobimetinib] | 6.7 fold | 670% | 3.2 fold | 320% | –
6 | CC(C)(C)c1nc(-c2cccc(NS(=O)(=O)c3c(F)cccc3F)c2F)c(-c2ccnc(N)n2)s1 [dabrafenib] | 1.71 fold | 171% | – | – | –
7 | COC(=O)N[C@H](C(=O)N1CCC[C@H]1c1nc(-c2ccc3c(c2)O[C@@H](c2ccccc2)n2c-3cc3cc(-c4c[nH]c([C@@H]5CCCN5C(=O)[C@@H](NC(=O)OC)C(C)C)n4)ccc32)c[nH]1)C(C)C [elbasvir] | EBR: 1.8; fold | 180%; | 1.29; fold | 129%; | –
8 | COC(=O)N[C@@H](C)CNc1nccc(-c2cn(C(C)C)nc2-c2cc(Cl)cc(NS(C)(=O)=O)c2F)n1 [encorafenib] | 3 fold | 300% | 1.45 fold | 145% | elevation of baseline AUC when coadministered with posaconazole (percent of baseline) ([3]; in vivo): 300%
9 | CO[C@H]1C[C@@H]2CC[C@@H](C)[C@@](O)(O2)C(=O)C(=O)N2CCCC[C@H]2C(=O)O[C@H]([C@H](C)C[C@@H]2CC[C@@H](OCCO)[C@H](OC)C2)CC(=O)[C@H](C)/C=C(\C)[C@@H](O)[C@@H](OC)C(=O)[C@H](C)C[C@H](C)/C=C/C=C/C=C/1C [everolimus] | – | – | – | – | normal baseline AUC: mean AUC0-24±SD at steady state ([1]; 10 mg everolimus): about 536±7.7 ng*h/mL; normal baseline Cmax: mean Cmax (% CV), steady state ([1]; 10 mg everolimus): 59.7±16.9 (21.7%) ng/mL
10 | O=c1[nH]c2ccccc2n1CCN1CCN(c2cccc(C(F)(F)F)c2)CC1 [flibanserin] | 1.4 fold | 140% | 1.1 fold | 110% | –
11 | CCC(=O)O[C@]1(C(=O)SCF)[C@H](C)C[C@H]2[C@@H]3C[C@H](F)C4=CC(=O)C=C[C@]4(C)[C@@]3(F)[C@@H](O)C[C@@]21C [fluticasone propionate] | – | – | – | – | AUC co-administration levels, Fold change [3, 8]: 1.9; fold; AUC co-administration levels, Percent of baseline [3, 8]: 190%;
12 | C=C[C@@H]1C[C@]1(NC(=O)[C@@H]1C[C@@H]2CN1C(=O)[C@H](C(C)(C)C)NC(=O)O[C@@H]1C[C@H]1CCCCCc1nc3ccc(OC)cc3nc1O2)C(=O)NS(=O)(=O)C1CC1.O [grazoprevir] | GZR: 3.02 fold | 302% | 1.13 fold | 113% | –
13 | CCc1c2c(nc3ccc(OC(=O)N4CCC(N5CCCCC5)CC4)cc13)-c1cc3c(c(=O)n1C2)COC(=O)[C@]3(O)CC [irinotecan] | – | – | – | – | Baseline AUC (% CV) [1, 4]: 10,200 ng*h/mL; Baseline Cmax (% CV) [1, 5]: 1,660 ± 797 ng/ml; Baseline AUC (% CV) [1, 6]: 20,604 ng*h/mL; Baseline Cmax (% CV) [1, 7]: 3,392 ± 874 ng/ml
14 | COc1cc2c(cc1OC)CC(=O)N(CCCN(C)C[C@H]1Cc3cc(OC)c(OC)cc31)CC2 [ivabradine] | 7 fold | 700% | 3.25 fold | 325% | AUC target safe level, Fold change ([2]; human): 2.1 fold; AUC target safe level, Percent of baseline ([2]; human): 210%; Cmax target safe level, Fold change ([2]; human): 1.6 fold; Cmax target safe level, Percent of baseline ([2]; human): 160%
15 | N#Cc1ccnc(N2C(=O)CC[C@H]2C(=O)N(c2cncc(F)c2)[C@H](C(=O)NC2CC(F)(F)C2)c2ccccc2Cl)c1 [ivosidenib] | 2.69 fold | 269% | – | – | AUC target safe level, Fold change ([2]; human): 1.73 fold; AUC target safe level, Percent of baseline ([2]; human): 173%; Cmax target safe level, Fold change ([2]; human): 1.52 fold; Cmax target safe level, Percent of baseline ([2]; human): 152%
16 | O=C(Nc1cnn2ccc(N3CCC[C@@H]3c3cc(F)ccc3F)nc12)N1CC[C@H](O)C1 [larotrectinib] | 4.3 fold | 430% | 2.8 fold | 280% | –
17 | C[C@H]1Oc2cc(cnc2N)-c2c(nn(C)c2C#N)CN(C)C(=O)c2ccc(F)cc21 [lorlatinib] | 1.42 fold | 142% | 1.24 fold | 124% | –
18 | C=CCN1CC[C@]23c4c5ccc(O)c4O[C@H]2[C@@H](OCCOCCOCCOCCOCCOCCOCCOC)CC[C@@]3(O)[C@H]1C5 [naloxegol] | – | – | – | – | AUC target safe level, Fold change [2, 9]: 3.41 fold; AUC target safe level, Percent of baseline [2, 9]: 341%; Cmax target safe level, Fold change [2, 9]: 2.86 fold; Cmax target safe level, Percent of baseline [2, 9]: 286%; AUC co-administration levels, Fold change [3, 8]: 12.85 fold; AUC co-administration levels, Percent of baseline [3, 8]: 1285%; Cmax co-administration levels, Fold change [3, 8]: 9.58 fold; Cmax co-administration levels, Percent of baseline [3, 8]: 958%
19 | Cc1cn(-c2cc(NC(=O)c3ccc(C)c(Nc4nccc(-c5cccnc5)n4)c3)cc(C(F)(F)F)c2)cn1 [nilotinib] | 3 fold | 300% | – | – | –
20 | O=C(c1cc(Cc2n[nH]c(=O)c3ccccc23)ccc1F)N1CCN(C(=O)C2CC2)CC1 [olaparib] | 2.2 fold | 220% | 1.1 fold | 110% | –
21 | CNC(=O)c1cc(Oc2ccc(NC(=O)Nc3ccc(Cl)c(C(F)(F)F)c3)c(F)c2)ccn1 [regorafenib] | 1.33 fold | 133% | – | – | –
22 | CN(C)C(=O)c1cc2cnc(Nc3ccc(N4CCNCC4)cn3)nc2n1C1CCCC1 [ribociclib] | 3.2 fold | 320% | 1.7 fold | 170% | –
23 | O=C(NC[C@H]1CN(c2ccc(N3CCOCC3=O)cc2)C(=O)O1)c1ccc(Cl)s1 [rivaroxaban] | 1.76 fold | 176% | 1.56 fold | 156% | AUC target safe level, Fold change ([2]; human): 1.52 fold; AUC target safe level, Percent of baseline ([2]; human): 152%; Cmax target safe level, Percent of baseline ([2]; human): 0%
24 | N#C[C@@H]1C[C@@H]2C[C@@H]2N1C(=O)[C@@H](N)C12CC3CC(CC(O)(C3)C1)C2 [saxagliptin] | 3.67 fold | 367% | 2.44 fold | 244% | –
25 | CCc1cc(/C(C)=N/OCc2ccc(C3CCCCC3)c(C(F)(F)F)c2)ccc1CN1CC(C(=O)O)C1 [siponimod] | 2 fold | 200% | – | – | AUC target safe level, Fold change ([2]; human): 10.4 fold; AUC target safe level, Percent of baseline ([2]; human): 1040%
26 | O=C(O[C@H]1CN2CCC1CC2)N1CCc2ccccc2[C@@H]1c1ccccc1 [solifenacin succinate] | – | – | – | – | normal baseline AUC: mean AUC0-24 (% CV) at steady state ([1]; in vivo, 5 mg): about 463 (37%) ng*h/mL; normal baseline Cmax: mean Cmax (% CV), steady state ([1]; in vivo, 5 mg): 24.01 (30%) ng/mL; normal baseline AUC: mean AUC0-24 (% CV) at steady state ([1]; in vivo, 10 mg): about 749 (22%) ng*h/mL; normal baseline Cmax: mean Cmax (% CV), steady state ([1]; in vivo, 10 mg): 40.61 (21%) ng/mL
27 | Cc1c(C(=O)Nc2ccc(N3C[C@@H](C)O[C@@H](C)C3)nc2)cccc1-c1ccc(OC(F)(F)F)cc1 [sonidegib] | 2.2 fold | 220% | 1.5 fold | 150% | Cmax target safe level, Percent of baseline ([2]; human): 0%
28 | CC1(C)CCC(CN2CCN(c3ccc(C(=O)NS(=O)(=O)c4ccc(NCC5CCOCC5)c([N+](=O)[O-])c4)c(Oc4cnc5[nH]ccc5c4)c3)CC2)=C(c2ccc(Cl)cc2)C1 [venetoclax] | 1.78 fold | 178% | 1.06 fold | 106% | –
